Read-outs that look alike come from different tables or passages of the source.
Experiments:
Format in all cases: biochemical
c-Abl = c-Abl (Homo sapiens, UniProt P00519); test: Inhibitory activity against c-Abl (Example 207); settings: Examples 171 to 206
FGFR3 (K650E) = molecular target: T1, FGFR3 (K650E) (Homo sapiens, UniProt P22607, K650E); test: Recombinant GST-FGFR-3-K650E tyrosine kinase assay (33P into poly(Glu,Tyr)); settings: 10 μM
T1 construct: amino acids 411-806 of the cytoplasmic domain of human FGFR-3, N-terminally fused to GST; made in house; host or cells: Sf9 insect cells (baculovirus)
T1 sequence (P22607 411-806 K650E): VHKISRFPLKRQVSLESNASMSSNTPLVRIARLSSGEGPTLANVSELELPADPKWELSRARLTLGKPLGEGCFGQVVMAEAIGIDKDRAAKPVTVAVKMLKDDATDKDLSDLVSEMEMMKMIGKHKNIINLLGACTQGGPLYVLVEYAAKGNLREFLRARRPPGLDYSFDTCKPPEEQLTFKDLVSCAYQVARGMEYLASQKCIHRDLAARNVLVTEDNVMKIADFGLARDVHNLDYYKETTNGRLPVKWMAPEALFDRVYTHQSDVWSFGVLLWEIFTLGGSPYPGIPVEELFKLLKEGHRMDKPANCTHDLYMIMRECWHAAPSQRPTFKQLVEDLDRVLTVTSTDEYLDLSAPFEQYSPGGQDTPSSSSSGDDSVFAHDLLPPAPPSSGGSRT

KDR = molecular target: T2, KDR (Homo sapiens, UniProt P35968); test: Inhibitory activity against KDR (VEGF-R2), in vitro data of Examples 170 and 207; settings: 10 μM, read-out: KDR inhibition at 10 μM
T2 construct: expressed in transfected cells; host or cells: CHO cells
T2 sequence (P35968 20-1356): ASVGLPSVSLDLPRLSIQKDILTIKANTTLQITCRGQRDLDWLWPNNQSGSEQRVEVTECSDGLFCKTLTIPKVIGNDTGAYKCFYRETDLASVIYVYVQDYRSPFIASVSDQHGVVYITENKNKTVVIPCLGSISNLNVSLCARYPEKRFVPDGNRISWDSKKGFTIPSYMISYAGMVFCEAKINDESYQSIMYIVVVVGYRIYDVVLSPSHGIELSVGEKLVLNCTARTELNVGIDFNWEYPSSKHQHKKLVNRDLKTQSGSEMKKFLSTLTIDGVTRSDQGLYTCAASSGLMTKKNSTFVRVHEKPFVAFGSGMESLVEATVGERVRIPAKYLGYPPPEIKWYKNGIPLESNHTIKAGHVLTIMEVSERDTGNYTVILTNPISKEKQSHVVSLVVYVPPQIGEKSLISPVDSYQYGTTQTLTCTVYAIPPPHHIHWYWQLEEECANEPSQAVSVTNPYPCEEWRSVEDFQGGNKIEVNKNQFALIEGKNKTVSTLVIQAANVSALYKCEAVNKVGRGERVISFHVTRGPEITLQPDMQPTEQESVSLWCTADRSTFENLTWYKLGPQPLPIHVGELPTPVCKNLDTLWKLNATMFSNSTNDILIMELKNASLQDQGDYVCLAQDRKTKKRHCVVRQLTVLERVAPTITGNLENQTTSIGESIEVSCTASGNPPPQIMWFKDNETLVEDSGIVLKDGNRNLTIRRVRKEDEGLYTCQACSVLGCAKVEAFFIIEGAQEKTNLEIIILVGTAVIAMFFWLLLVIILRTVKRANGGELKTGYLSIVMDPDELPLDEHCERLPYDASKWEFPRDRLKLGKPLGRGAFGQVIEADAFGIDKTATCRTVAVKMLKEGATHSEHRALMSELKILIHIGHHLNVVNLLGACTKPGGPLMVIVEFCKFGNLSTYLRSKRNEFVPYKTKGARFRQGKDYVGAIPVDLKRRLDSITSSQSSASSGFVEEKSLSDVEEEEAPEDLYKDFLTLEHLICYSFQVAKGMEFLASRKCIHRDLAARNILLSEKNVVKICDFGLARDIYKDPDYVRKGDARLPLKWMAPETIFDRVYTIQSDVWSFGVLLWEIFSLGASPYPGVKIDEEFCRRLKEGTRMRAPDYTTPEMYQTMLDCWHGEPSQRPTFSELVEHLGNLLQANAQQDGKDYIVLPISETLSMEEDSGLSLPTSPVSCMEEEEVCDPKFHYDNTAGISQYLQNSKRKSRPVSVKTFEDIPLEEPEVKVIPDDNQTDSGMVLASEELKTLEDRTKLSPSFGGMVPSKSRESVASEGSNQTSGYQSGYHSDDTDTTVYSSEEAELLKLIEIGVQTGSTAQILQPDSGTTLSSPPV
Method in brief: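 KDR tyrosine phosphorylation detected by luminescence after overnight 4° C capture of 20 μg lysate protein with PY20:AP antibody. Lysates came from cells given compound for 2 h at 37° C, then final 20 ng/ml VEGF for 5 min; compound-free medium as control.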

Tek = molecular target: T3, Tek (Homo sapiens, UniProt Q02763); test: Recombinant GST-Tek (Tie-2) tyrosine kinase assay (33P into poly(Glu,Tyr)); settings: Examples 1 to 169
T3 construct: amino acids 773-1124 of the cytoplasmic kinase domain of human Tek, N-terminally fused to GST; made in house; host or cells: Sf9 insect cells (baculovirus)
T3 sequence (Q02763 773-1124): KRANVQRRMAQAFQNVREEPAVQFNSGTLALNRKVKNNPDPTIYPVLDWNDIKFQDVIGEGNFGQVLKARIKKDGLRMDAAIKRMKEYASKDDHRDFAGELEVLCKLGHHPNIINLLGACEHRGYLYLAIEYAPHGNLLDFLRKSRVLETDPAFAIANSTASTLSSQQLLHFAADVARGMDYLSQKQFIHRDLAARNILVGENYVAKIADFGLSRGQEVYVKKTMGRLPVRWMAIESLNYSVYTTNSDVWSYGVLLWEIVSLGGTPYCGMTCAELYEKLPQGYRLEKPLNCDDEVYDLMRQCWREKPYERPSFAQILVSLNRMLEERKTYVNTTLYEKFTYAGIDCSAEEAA
Method in brief: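 GST-fused human Tek kinase domain (aa 773-1124), baculovirus-expressed, 150 ng per reaction; 10 μg/mL poly(Glu,Tyr) 4:1, 4.0 μM [γ-33P]ATP, 3 mM MnCl2/3 mM MgCl2, pH 7.5, 30 min at ambient temperature. 33P uptake read on PVDF filters; IC50 by linear regression from four concentrations in duplicate.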

[1] = Examples 171 to 206, read-out: FGFR3 inhibition at 10 μM
[2] = Examples 1 to 169, read-out: FGFR3 (K650E) inhibition at 10 μM

Sequence of c-Abl (P00519 whole entry): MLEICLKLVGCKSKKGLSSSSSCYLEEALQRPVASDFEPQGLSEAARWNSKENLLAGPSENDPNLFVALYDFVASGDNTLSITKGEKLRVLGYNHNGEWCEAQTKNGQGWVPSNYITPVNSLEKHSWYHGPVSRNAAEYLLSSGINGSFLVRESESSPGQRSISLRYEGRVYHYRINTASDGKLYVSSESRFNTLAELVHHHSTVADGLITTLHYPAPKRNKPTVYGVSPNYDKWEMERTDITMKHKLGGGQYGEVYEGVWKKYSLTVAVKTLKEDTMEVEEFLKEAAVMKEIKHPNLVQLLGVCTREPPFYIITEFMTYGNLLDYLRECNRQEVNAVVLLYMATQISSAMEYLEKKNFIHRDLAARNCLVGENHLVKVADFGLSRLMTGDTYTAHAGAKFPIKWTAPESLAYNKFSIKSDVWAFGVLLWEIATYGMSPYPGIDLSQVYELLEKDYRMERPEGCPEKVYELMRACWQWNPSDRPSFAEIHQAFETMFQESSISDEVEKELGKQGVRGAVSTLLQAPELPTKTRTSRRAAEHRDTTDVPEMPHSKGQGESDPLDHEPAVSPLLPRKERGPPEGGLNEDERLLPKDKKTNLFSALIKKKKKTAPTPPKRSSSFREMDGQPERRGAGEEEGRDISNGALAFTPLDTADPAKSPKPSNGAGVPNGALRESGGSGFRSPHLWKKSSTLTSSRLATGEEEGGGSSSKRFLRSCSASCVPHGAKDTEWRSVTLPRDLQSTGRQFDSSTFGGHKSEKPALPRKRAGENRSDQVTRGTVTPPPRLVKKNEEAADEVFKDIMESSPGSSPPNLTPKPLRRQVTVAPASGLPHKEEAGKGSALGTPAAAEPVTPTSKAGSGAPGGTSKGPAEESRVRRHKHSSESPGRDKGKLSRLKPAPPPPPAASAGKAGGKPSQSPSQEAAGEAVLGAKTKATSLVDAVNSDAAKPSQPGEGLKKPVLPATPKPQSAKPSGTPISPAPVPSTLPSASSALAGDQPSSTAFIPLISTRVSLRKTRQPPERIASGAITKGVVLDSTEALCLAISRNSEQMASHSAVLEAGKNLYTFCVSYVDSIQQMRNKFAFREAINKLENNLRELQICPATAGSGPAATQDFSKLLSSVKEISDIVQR

SMILES | inhibition at 10 µM (c-Abl) [%] | inhibition at 10 µM (FGFR3 (K650E); [1]) [%] | inhibition at 10 µM (KDR; Examples 171 to 206) [%] | inhibition at 10 µM (FGFR3 (K650E); [2]) [%] | inhibition at 10 µM (KDR; Examples 1 to 169) [%] | inhibition at 10 µM (Tek) [%]
Cc1ccc(NC(=O)c2cccc(C(F)(F)F)c2)cc1NC(=O)Nc1cc(Nc2ccccc2)ncn1 [Example 173, N-{4-Methyl-3-[3-(6-phenylamino-pyrimidin-4-yl)-ureido]-phenyl}-3-trifluoromethyl-benzamide] | 79 to 100 | 56 to 98 | 87 to 100 | – | – | –
Cc1ccc(NC(=O)c2cccc(C(F)(F)F)c2)cc1NC(=O)N(CCc1ccccn1)c1cc(Nc2ccc(N3CCN(C)CC3)cc2)ncn1 [Example 191, N-[4-Methyl-3-[3-{6-[4-(4-methyl-piperazin-1-yl)-phenylamino]-pyrimid-in-4-yl]-3-(2-pyridin-2-yl-ethyl)-ureido]-phenyl}-3-trifluoromethyl-benzamide] | 79 to 100 | 56 to 98 | 87 to 100 | – | – | –
CNc1cc(NC(=O)Nc2cc(NC(=O)c3cccc(C(F)(F)F)c3)ccc2C)ncn1 [Example 172, N-{4-Methyl-3-[3-(6-methylamino-pyrimidin-4-yl)-ureido]-phenyl}-3-trifluoromethyl-benzamide] | 79 to 100 | 56 to 98 | 87 to 100 | – | – | –
Cc1ccc(NC(=O)c2cccc(C(F)(F)F)c2)cc1NC(=O)Nc1cc(Nc2ccc(N3CCN(C)CC3)cc2)ncn1 [Example 174, N-[4-Methyl-3-(3-{6-[4-(4-methyl-piperazin-1-yl)-phenylamino]-pyrimidin-4-yl}-ureido)-phenyl]-3-trifluoromethyl-benzamide] | 79 to 100 | 56 to 98 | 87 to 100 | – | – | –
COc1ccc(N)cc1NC(=O)N(C)c1cc(Nc2ccc(N3CCN(C)CC3)cc2)ncn1 [Example 196, 3-(5-Amino-2-methoxy-phenyl)-1-methyl-1-{6-[4-(4-methyl-piperazin-1-yl)-phenylamino]-pyrimidin-4-yl}-urea] | 79 to 100 | 56 to 98 | 87 to 100 | – | – | –
Cc1ccc(NC(=O)c2cccc(C(F)(F)F)c2)cc1NC(=O)Nc1cc(Nc2cccc(OCCN(C)C)c2)ncn1 [Example 178, N-[3-(3-{6-[3-(2-Dimethylamino-ethoxy)-phenylamino]-pyrimidin-4-yl}-ureido)-4-methyl-phenyl]-3-trifluoromethyl-benzamide] | 79 to 100 | 56 to 98 | 87 to 100 | – | – | –
Cc1ccc(NC(=O)c2cccc(C(F)(F)F)c2)cc1NC(=O)Nc1cc(Nc2cccc(OCCN3CCOCC3)c2)ncn1 [Example 180, N-[4-Methyl-3-(3-{6-[3-(2-morpholin-4-yl-ethoxy)-phenylamino]-pyrimidin-4-yl}-ureido)-phenyl]-3-trifluoromethyl-benzamide] | 79 to 100 | 56 to 98 | 87 to 100 | – | – | –
Cc1ccc(NC(=O)c2cccc(C(F)(F)F)c2)cc1NC(=O)Nc1cc(Nc2ccc(OCCCN(C)C)cc2)ncn1 [Example 177, N-[3-(3-{6-[4-(3-Dimethylamino-propoxy)-phenylamino]-pyrimidin-4-yl}-ureido)-4-methyl-phenyl]-3-trifluoromethyl-benzamide] | 79 to 100 | 56 to 98 | 87 to 100 | – | – | –
COc1cc(OC)c(Cl)c(NC(=O)N(C)c2cc(Nc3ccc(CN(C)C)c(C(F)(F)F)c3)ncn2)c1Cl [Example 167, 3-(2,6-Dichloro-3,5-dimethoxy-phenyl)-1-[6-(4-dimethylaminomethyl-3-trifluoromethyl-phenylamino)-pyrimidin-4-yl]-1-methyl-urea] | – | – | – | 27 to 100 | 67 to 100 | 12 to 100
CCN1CCN(Cc2ccc(Nc3cc(N(C)C(=O)Nc4c(Cl)c(OC)cc(OC)c4Cl)ncn3)cc2C(F)(F)F)CC1 [Example 169, 3-(2,6-Dichloro-3,5-dimethoxy-phenyl)-1-{6-[4-(4-ethyl-piperazin-1-ylmethyl)-3-trifluoromethyl-phenylamino]-pyrimidin-4-yl}-1-methyl-urea] | – | – | – | 27 to 100 | 67 to 100 | 12 to 100
COc1cc(OC)c(Cl)c(NC(=O)N(C)c2cc(Nc3ccc(N4CCN(C(C)C)CC4)cc3)ncn2)c1Cl [Example 163, 3-(2,6-Dichloro-3,5-dimethoxy-phenyl)-1-{6-[4-(4-isopropyl-piperazin-1-yl)-phenylamino]-pyrimidin-4-yl}-1-methyl-urea] | – | – | – | 27 to 100 | 67 to 100 | 12 to 100
O=C(Nc1cc(Nc2cccc(Cl)c2)ncn1)Nc1ccccc1F [Example 130, 1-[6-(3-Chloro-phenylamino)-pyrimidin-4-yl]-3-(2-fluoro-phenyl)-urea] | – | – | – | 27 to 100 | 67 to 100 | 12 to 100
COc1cc(NC(=O)Nc2cc(Nc3cccc(Cl)c3)ncn2)cc(OC)c1 [Example 139, 1-[6-(3-Chloro-phenylamino)-pyrimidin-4-yl]-3-(3,5-dimethoxy-phenyl)-urea] | – | – | – | 27 to 100 | 67 to 100 | 12 to 100

The next lines start with the values.

inhibition at 10 µM (c-Abl) [%] | inhibition at 10 µM (FGFR3 (K650E); [1]) [%] | inhibition at 10 µM (KDR; Examples 171 to 206) [%] | inhibition at 10 µM (FGFR3 (K650E); [2]) [%] | inhibition at 10 µM (KDR; Examples 1 to 169) [%] | inhibition at 10 µM (Tek) [%] | SMILES
79 to 100 | 56 to 98 | 87 to 100 | – | – | – | Cc1ccc(NC(=O)c2cccc(C(F)(F)F)c2)cc1NC(=O)N(CCN1CCN(C)CC1)c1cc(Nc2ccccc2)ncn1 [Example 189, N-{4-Methyl-3-[3-[2-(4-methyl-piperazin-1-yl)-ethyl]-3-(6-phenylamino-pyrimidin-4-yl)-ureido]-phenyl}-3-trifluoromethyl-benzamide]
79 to 100 | 56 to 98 | 87 to 100 | – | – | – | COc1ccc(NC(=O)c2cccc(C(F)(F)F)c2)cc1NC(=O)N(C)c1cc(Nc2ccc(N3CCN(C)CC3)cc2)ncn1 [Example 197, N-[4-Methoxy-3-(3-methyl-3-{6-[4-(4-methyl-Piperazin-1-yl)-phenylamino]-pyrimidin-4-yl}-ureido)-phenyl]-3-trifluoromethyl-benzamide]
79 to 100 | 56 to 98 | 87 to 100 | – | – | – | Cc1ccc(NC(=O)c2cccc(C(F)(F)F)c2)cc1NC(=O)N(C)c1cc(Nc2cccc(OCCN3CCN(C)CC3)c2)ncn1 [Example 185, N-{4-Methyl-3-[3-methyl-3-(6-{3-[2-(4-methyl-piperazin-1-yl)-ethoxy]-phenylamino}-pyrimidin-4-yl)-ureido]-phenyl}-3-trifluoromethyl-benzamide]
79 to 100 | 56 to 98 | 87 to 100 | – | – | – | Cc1ccc(NC(=O)c2ccc(CN3CCN(C)CC3)c(C(F)(F)F)c2)cc1NC(=O)N(C)c1cc(Nc2ccccc2)ncn1 [Example 195, N-{4-Methyl-3-[3-methyl-3-(6-phenylamino-pyrimidin-4-yl)-ureido]-phenyl}-4-(4-methyl-piperazin-1-ylmethyl)-3-trifluoromethyl-benzamide]
79 to 100 | 56 to 98 | 87 to 100 | – | – | – | CC(=O)Nc1cc(N(C)C(=O)Nc2cc(C(=O)Nc3ccc(CN4CCN(C)CC4)c(C(F)(F)F)c3)ccc2C)ncn1 [Example 205, 3-[3-(6-Acetylamino-pyrimidin-4-yl)-3-methyl-ureido]-4-methyl-N-[4-(4-methyl-piperazin-1-ylmethyl)-3-trifluoromethyl-phenyl]-benzamide]
79 to 100 | 56 to 98 | 87 to 100 | – | – | – | COc1cc(NC(=O)c2ccc(CN3CCN(C)CC3)c(C(F)(F)F)c2)cc(NC(=O)N(C)c2cc(N)ncn2)c1 [Example 199, N-{3-[3-(6-Amino-pyrimidin-4-yl)-3-methyl-ureido]-5-methoxy-phenyl}-4-(4-methyl-piperazin-1-ylmethyl)-3-trifluoromethyl-benzamide]
79 to 100 | 56 to 98 | 87 to 100 | – | – | – | Cc1ccc(C(=O)Nc2cccc(C(F)(F)F)c2)cc1NC(=O)N(C)c1cc(Nc2ccc(N3CCN(C)CC3)cc2)ncn1 [Example 186, 4-Methyl-3-(3-methyl-3-{6-[4-(4-methyl-piperazin-1-yl)-phenylamino]-pyrimidin-4-yl}-ureido)-N-(3-trifluoromethyl-phenyl)-benzamide]
79 to 100 | 56 to 98 | 87 to 100 | – | – | – | COc1ccc(NC(=O)c2ccc(CN3CCN(C)CC3)c(C(F)(F)F)c2)cc1NC(=O)N(C)c1cc(Nc2ccc(N3CCN(C)CC3)cc2)ncn1 [Example 198, N-[4-Methoxy-3-(3-methyl-3-{6-[4-(4-methyl-piperazin-1-yl)-phenyl-amino]-pyrimidin-4-yl}-ureido)-phenyl]-4-(4-methyl-piperazin-1-ylmethyl)-3-trifluoro-methyl-benzamide]
79 to 100 | 56 to 98 | 87 to 100 | – | – | – | COC(=O)Nc1cc(N(C)C(=O)Nc2cc(C(=O)Nc3ccc(CN4CCN(C)CC4)c(C(F)(F)F)c3)ccc2C)ncn1 [Example 204, [6-(1-Methyl-3-{2-methyl-5-[4-(4-methyl-piperazin-1-ylmethyl)-3-trifluoromethyl-phenylcarbamoyl]-phenyl}-ureido)-pyrimidin-4-yl]-carbamic acid methyl ester]

From patent US8552002B2 (Novartis AG, priority 2004, dated 2013)
